Values of other authors as cited in patent US8778989B2, “Cosmetic composition comprising a lipid fraction from vegetable source and anticrystaling agent” (Natura Cosmeticos S.A., priority 2004, dated 2014).
Read-outs that look alike come from different tables or passages of the source.

| Relative Velocity of Oxidation of Fatty Acids (T = 20° C.) | Relative Velocity of Oxidation of Fatty Acids (T = 100° C.) | Relative Velocity of Oxidation of Fatty Acids (T = 37° C.) | oxidation rate relative to oleic acid (as fast as oleic acid) [times] | Compound |
| --- | --- | --- | --- | --- |
| 4 | 6 |  |  | CCCCCCCC/C=C\CCCCCCCC(=O)O [Oleic, oleic acid] |
| 48 | 64 | 42 | 15 | CCCCC/C=C\C/C=C\CCCCCCCC(=O)O [Linoleic, 9,12-linoleic acid] |
|  | 0.6 |  |  | CCCCCCCCCCCCCCCCCC(=O)O [Stearic] |
